Data from PMC10439952, “JT002, a small molecule inhibitor of the NLRP3 inflammasome for the treatment of autoinflammatory disorders” (Scientific Reports, 2023).

What was measured:
TNFα production = TNFα production in mouse BMDMs stimulated by LPS + nigericin; assay type: cell-based; details: Mouse BMDM, read-out: Geo Av IC50, TNFα
Description: (§1) Inflammasome activation and whole blood assays were essentially carried out as described earlier. Details can be found in the supplementary information section accompanying this publication. A protocol for blood draws from healthy volunteers and use of the blood in preclinical assays was approved by Western Institutional Review Board, Inc (Puyallup, WA, USA). Informed consent was obtained from each donor prior to the first blood draw.
4H). MS: m/z 433.1 (M+H+).
Inflammasome activation.PBMCs (iXCells Biotechnologies, San Diego, USA) were thawed the day before the assay and seeded in complete medium (RPMI 1640 medium with GlutaMAX, supplemented with an additional 2.5 g/L D-glucose, 10% Fet al Bovine Serum, 100 mM Sodium Pyruvate, 1% Penicillin/Streptomycin, 10 mM HEPES and 0.05 mM β -mercaptoethanol) in polystyrene V-bottom 96-well plates at 5x10^4 cells per well and incubated overnight at 37°C with 5% CO 2. […]
flagellin, prepared in Opt iMEM and combined with Lipofectamine 2000. […] After priming Nlrp3 -/- mBMDMs with 100 ng/mL of LPS for 3- 5 h, cells were exposed to 100 ng/mL L18- MDP and incubated overnight.At the end of the incubation period of the assays above, plates were briefly centri fuged and hal f of the cell culture supern atant remo ved and either analysed i mmediately or stored at - 80°C for subs equent cytokine […]

NLRP3 inflammasome = NLRP3 inflammasome (Homo sapiens, UniProt Q96P20); test: Inhibition of IL-1β production in LPS + ATP stimulated (canonical) human whole blood; assay type: cell-based; design: host or cells: fresh heparinised human whole blood from healthy volunteers; details: read-out: Geo Av IC50, IL-1β
NLRP3 inflammasome, sequence (Q96P20 whole entry): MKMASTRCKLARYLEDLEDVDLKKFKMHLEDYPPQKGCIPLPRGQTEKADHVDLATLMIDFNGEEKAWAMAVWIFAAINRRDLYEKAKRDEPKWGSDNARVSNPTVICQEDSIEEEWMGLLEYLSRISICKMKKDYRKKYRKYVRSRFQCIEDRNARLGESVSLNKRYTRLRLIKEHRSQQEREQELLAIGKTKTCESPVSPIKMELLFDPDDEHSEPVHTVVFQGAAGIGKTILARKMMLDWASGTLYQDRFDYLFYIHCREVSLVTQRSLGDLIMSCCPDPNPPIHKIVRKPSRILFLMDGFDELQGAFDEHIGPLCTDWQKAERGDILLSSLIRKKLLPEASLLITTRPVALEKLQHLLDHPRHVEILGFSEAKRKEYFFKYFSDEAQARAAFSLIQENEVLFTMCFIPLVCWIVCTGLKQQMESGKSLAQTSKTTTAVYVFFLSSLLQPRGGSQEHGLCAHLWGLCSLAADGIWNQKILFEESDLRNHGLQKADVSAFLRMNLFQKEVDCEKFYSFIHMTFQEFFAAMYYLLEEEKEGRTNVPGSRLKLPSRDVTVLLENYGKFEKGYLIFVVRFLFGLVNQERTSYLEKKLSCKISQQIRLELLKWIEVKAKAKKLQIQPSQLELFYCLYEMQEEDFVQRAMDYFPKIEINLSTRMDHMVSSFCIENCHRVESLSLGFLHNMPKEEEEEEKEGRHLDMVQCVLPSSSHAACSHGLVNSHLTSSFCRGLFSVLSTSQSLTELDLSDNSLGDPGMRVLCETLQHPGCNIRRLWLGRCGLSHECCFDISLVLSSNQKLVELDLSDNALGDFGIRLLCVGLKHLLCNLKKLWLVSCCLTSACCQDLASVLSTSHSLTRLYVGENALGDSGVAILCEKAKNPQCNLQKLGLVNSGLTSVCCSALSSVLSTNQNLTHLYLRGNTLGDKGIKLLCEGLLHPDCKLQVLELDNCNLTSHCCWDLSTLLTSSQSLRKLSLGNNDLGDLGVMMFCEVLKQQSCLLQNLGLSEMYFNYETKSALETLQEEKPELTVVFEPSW
Protocol: as §1
Cell viability was determined by addition of an equal volume of CellTiter-Glo® 2.0 reagent (Promega) to the remaining cells/supernatant in each well. Intracellular Caspase-1 activity was measured using the Caspase-Glo® assay (Promega) according to the manufacturer’s instructions. The biochemical capsase-1 assay was conducted at Reaction Biology Corporation (Malvern, USA). Human IL-1β, IL-1α, and TNFα and mouse IL-1β were measured in cell culture supernatants using homogeneous time resolved fluorescence assay kits (HTRF, Cisbio, Codolet, France). Human IL-18 was measured in cell culture supernatants using an ELISA kit (R&D Systems, Minneapolis, MN, USA). Plasma IL-1β concentrations were determined by Quantikine® ELISA (R&D Systems, Minneapolis, MN). […]
flagellin, prepared in Opt iMEM and combined with Lipofectamine 2000. […]

IC50 (TNFα production): > 10 µM | IC50 (NLRP3 inflammasome): 100 nM
Compound: CO[C@@H]1COc2c(S(=O)(=O)NC(=O)Nc3c4c(cc5c3CCC5)CCC4)cnn2C1 [JT002]
